Reference: patent US20230391808A1, “PHOSPHAPHENALENE-GOLD(I) COMPLEXES AS CHEMOTHERAPEUTIC AGENTS AGAINST GLIOBLASTOMA” (priority 2020, published 2023)

How the values were obtained:
NCH82 = experiment: Crystal violet proliferation assay, NCH82; type: cell-based, human; details: glioblastoma cell line, 48 h exposure, mean of three biological replicates ± standard deviation
NCH93 [1] = experiment: Annexin V apoptosis assay (flow cytometry), NCH93; type: cell-based, human; details: drug concentration of 2 μM, 48 hours
Description: (§1) For this purpose, cells were incubated with different concentrations of Compound 6 for 48 hours and subsequently analyzed by flow cytometry (see representative example in FIG. 4A). Annexin V and propidium iodide (PI) were used as indicators for apoptosis/necrosis.
(§2) To quantitate the extent of apoptosis and necrosis, either annexin V staining combined with DAPI or double labeling of cells with annexin V and propidium iodide (PI) was used. The double labeling allows the distinction between apoptotic (annexin V^pos/DAPI^neg or annexin V^pos/PI^neg) and necrotic (annexin V^pos/DAPI^pos or annexin V^pos/PI^pos) cells. Cells were seeded in a 6-well plate (2.5×10^5/well) and left to attach overnight. […]
(§3) After treatment supernatant containing apoptotic and necrotic cells was collected, cells were harvested, washed, and up to 1×10^6 cells were incubated with FITC-conjugated annexin V antibody diluted in 1:1000 DAPI solution following manufactures instructions (#51-65874X, BD Bioscienes, Franklin Lakes, USA) or incubated with FITC-conjugated annexin V antibody and PI for 15 min following manufacturer instructions (#51-65974X, BD Biosciences, Franklin Lakes, USA). Cells were acquired by flow cytometry using a BD LSRII flow cytometer (BD Bioscienes, Franklin Lakes, USA) and analyzed by FlowJo Software v7.6.5 (TreeStar, Ahland, USA).

NCH82 cell line = experiment: Drug uptake kinetics by fluorescence microscopy; type: cell-based, human
Description: Based on the observed high bio-activity and the spectroscopic properties of Compound 6 as an example of the present invention, the drug uptake kinetics was investigated in NCH82 cell line. To this end, cells were treated with increasing concentrations of Compound 6 and its drug uptake was monitored with a fluorescence microscope (excitation/emission 350/455 nm; data not shown).
To measure the uptake kinetics of compound 6 by NCH82 cells, they were seeded in a 96-well plate (5,000 cells/well) and after 24 h, cell culture medium was replaced with compound 6 or DMSO-containing medium (0.1, 1 and 10 μM). Images were taken with a fluorescence microscope (Olympus, Shinjuku, Japan) at 1 h, 24 h and 48 h after treatment initiation. A laser with an excitation/emission spectrum of 350/455 nm was used and images were taken with a 10× objective.

NCH551b = experiment: CellTiter-Glo proliferation assay, IDH-mutant glioma NCH551b; type: cell-based, human; details: IDH-mutant glioma cell line, 48 h, mean of three biological replicates ± standard deviation
Text: (§4) Based on the remarkable results obtained with Compound 6, its anti-proliferative effects on a series of different cancer cell lines was investigated. To that end, in addition to the three glioblastoma cell lines described above, Compound 6 was employed on eleven other cancer cell lines including brain metastasis (NCH517, NCH604a and NCH466), meningioma (NCH93 and BenMen-1), IDH-mutant glioma (NCH511b, NCH1618 and NCH3763), and head and neck cancer cell lines (HNO210, HNO199 and HNO97) (Table 3).
(§5) To assess the effect of Compound 4 and Compound 6 on cell growth of glioma stem-like cells (GSC) and GSC lines derived from IDH-mutant gliomas, cellular ATP levels were measured using the luminescent CellTiter-Glo Assay (Promega Corp, Madison, WI). GCS spheroid cultures were gently dissociated and cell suspensions were seeded in 96-well tissue culture plates (8,000 cells/well, 100 μl/well). After a 24-hour incubation period without any compound freshly reconstituted compound in ten final concentrations ranging from 0.01 μM to 200 μM were added and cells were incubated for 48 hours.
(§6) Before measurement, the plate was equilibrated at room temperature for 30 minutes. […] Next, the plate was incubated for 10 minutes at room temperature and finally, the luminescence was measured. […]

NCH466 [2] = experiment: Crystal violet proliferation assay, brain metastasis NCH466; type: cell-based, human; details: brain metastasis cell line, 48 h, mean of three biological replicates ± standard deviation
Text: as §4
(§7) The effect of different compounds on cell growth was evaluated by the crystal violet method as described earlier (J. P. Rigalli et al., Cancer Lett. 2016, 376, 165-172). Briefly, cells were seeded in 96-well plates (10,000 cells/well). […] After 48 h of exposure extent of cell proliferation inhibition was determined by crystal violet staining of surviving cells. […]
(§8) Next, crystal violet was solubilized in methanol and absorbance was measured at 555 nm. The proliferative index was calculated as crystal violet absorption intensity as percentage relative to baseline (no cells) as described before (T. Peters et al., Naunyn Schmiedebergs Arch Pharmacol. 2006, 372, 291-299.) Cell survival plotted against the decimal logarithm of drug concentration in μM (c (of compound x) in μM) and fitted to a sigmoidal dose-response curve using Graph Pad Prism 7.02 (GraphPad Software, San Diego, USA).

NCH517 [3] = experiment: Crystal violet proliferation assay, brain metastasis NCH517; type: cell-based, human; details: brain metastasis cell line, 48 h, mean of three biological replicates ± standard deviation
Text: as §4, §7, §8

[4] = tested on: cancer cell lines derived from brain metastases, meningiomas, IDH-mutant gliomas and head and neck cancers; experiment: Annexin V apoptosis assay (flow cytometry), all analyzed cell lines; type: cell-based, human; details: 48 hours (FIG. 4)
Description: as §1, §2, §3

NCH517 [5] = experiment: Annexin V apoptosis assay (flow cytometry), NCH517; type: cell-based, human; details: drug concentration of 2 μM, 48 hours
Description: as §1, §2, §3

NCH93 [6] = experiment: Crystal violet proliferation assay, meningioma NCH93; type: cell-based, human; details: meningioma cell line, 48 h, mean of three biological replicates ± standard deviation
Text: as §4, §7, §8

NCH466 [7] = experiment: Annexin V apoptosis assay (flow cytometry), NCH466; type: cell-based, human; details: drug concentration of 2 μM, 48 hours
Description: as §1, §2, §3

NCH604a [8] = experiment: Annexin V apoptosis assay (flow cytometry), NCH604a; type: cell-based, human; details: drug concentration of 2 μM, 48 hours
Description: as §1, §2, §3

HNO97 = experiment: Crystal violet proliferation assay, head and neck cancer HNO97; type: cell-based, human; details: head and neck cancer cell line, 48 h, mean of three biological replicates ± standard deviation
Text: as §4, §7, §8

NCH1618 = experiment: CellTiter-Glo proliferation assay, IDH-mutant glioma NCH1618; type: cell-based, human; details: IDH-mutant glioma cell line, 48 h, mean of three biological replicates ± standard deviation
Text: as §4, §5, §6

NCH604a [9] = experiment: Crystal violet proliferation assay, brain metastasis NCH604a; type: cell-based, human; details: brain metastasis cell line, 48 h, mean of three biological replicates ± standard deviation
Text: as §4, §7, §8

BenMen-1 = experiment: Crystal violet proliferation assay, meningioma BenMen-1; type: cell-based, human; details: meningioma cell line, 48 h, mean of three biological replicates ± standard deviation
Text: as §4, §7, §8

NCH3763 = experiment: CellTiter-Glo proliferation assay, IDH-mutant glioma NCH3763; type: cell-based, human; details: IDH-mutant glioma cell line, 48 h, mean of three biological replicates ± standard deviation
Text: as §4, §5, §6

HNO210 = experiment: Crystal violet proliferation assay, head and neck cancer HNO210; type: cell-based, human; details: head and neck cancer cell line, 48 h, mean of three biological replicates ± standard deviation
Text: as §4, §7, §8

HNO199 = experiment: Crystal violet proliferation assay, head and neck cancer HNO199; type: cell-based, human; details: head and neck cancer cell line, 48 h, mean of three biological replicates ± standard deviation
Text: as §4, §7, §8

cancer cell lines = experiment: Anti-proliferative effects on a series of different cancer cell lines; type: cell-based, human; details: summary over all cell lines of Table 3; read-out: mean IC50 values in some cell lines
Text: as §4, §7
as §8, with “USA). […]” for “USA).”

NCH149 = experiment: Crystal violet proliferation assay, NCH149; type: cell-based, human; details: glioblastoma cell line, 48 h exposure, mean of three biological replicates ± standard deviation
Description: In order to investigate the role of the fused phosphaphenalene ring in the bio-activity of the drug, the ability of Compound 5 to inhibit cell proliferation in the glioblastoma cell lines NCH82, NCH89 and NCH149 was examined. For this purpose, cells were incubated with increasing concentrations of Compound 5 and cell proliferation was evaluated by crystal violet assay.
The effect of different compounds on cell growth was evaluated by the crystal violet method as described earlier (J. P. Rigalli et al., Cancer Lett. 2016, 376, 165-172). Briefly, cells were seeded in 96-well plates (10,000 cells/well). After 24 h cell culture medium was replaced by fresh compound-containing medium (ten different concentrations (0.01 to 200 μM μM)). After 48 h of exposure extent of cell proliferation inhibition was determined by crystal violet staining of surviving cells. Therefore, cells were washed and stained with 0.5% crystal violet solution (2.5 g in 100 ml methanol, diluted with 400 ml aqua bidest) for 15 min, rinsed and dried overnight.
as §8

[10] = Stability under controlled thermodynamic conditions upon repetitive cycles of illumination; type: physicochemical; details: data not shown
NCH89 = experiment: Crystal violet proliferation assay, NCH89; type: cell-based, human; details: glioblastoma cell line, 48 h exposure, mean of three biological replicates ± standard deviation
[11] = tested on: head and neck cancer cell lines; experiment: Annexin V apoptosis assay (flow cytometry), head and neck cancer cell lines; type: cell-based, human; details: drug concentration of 5 μM, 48 hours
Description: as §1, §2, §3

CC(=O)OC[C@H]1O[C@@H]([S][Au-][P+]2(c3ccccc3)c3ccn(C)c3-c3cccc4cccc2c34)[C@H](OC(C)=O)[C@@H](OC(C)=O)[C@@H]1OC(C)=O (stereo partly drawn) [Compound 6]
IC50 (NCH82): 0.73 µM
cells in apoptosis/necrosis, NCH93 (NCH93 [1]): more than 50%
time after treatment initiation at which dead cells were first observed (NCH82 cell line; 0.1 μM): 48 h
time after which cell death could be observed (NCH82 cell line; 1 μM): 24 h
IC50 (NCH551b): 1.23 ± 0.25 µM
IC50 (NCH466 [2]): 1.01 ± 0.02 µM
IC50 (NCH517 [3]): 1.6 ± 0.3 µM
induction of apoptosis/necrosis in all analyzed cell lines [4]: able to induce apoptosis/necrosis
cells in apoptosis/necrosis, NCH517 (NCH517 [5]): more than 50%
IC50 (NCH93 [6]): 1.35 ± 0.09 µM
cells in apoptosis/necrosis, NCH466 (NCH466 [7]): more than 50%
cells in apoptosis/necrosis, NCH604a (NCH604a [8]): more than 50%
IC50 (HNO97): 5.51 ± 1.04 µM
IC50 (NCH1618): 0.88 µM
IC50 (NCH604a [9]): 1.86 ± 0.14 µM
IC50 (BenMen-1): 1.32 ± 0.12 µM
IC50 (NCH3763): 5.21 ± 0.31 µM
IC50 (HNO210): 1.1 ± 0.08 µM
IC50 (HNO199): 2.65 ± 0.25 µM
IC50 (cancer cell lines): ~1.5 µM
IC50 (NCH149): 0.87 µM
stability upon repetitive cycles of illumination [10]: very high stability
IC50 (NCH89): 4 µM
cells in apoptosis/necrosis, head and neck cancer cell lines [11]: more than 50%
